SMILES strings stand for the structures. pKi: −log10 of the molar value.

The target in assay [1] is T1, Fe(3+)-Zn(2+) purple acid phosphatase (Phaseolus vulgaris, UniProt P80366).
T1 sequence (P80366 whole entry): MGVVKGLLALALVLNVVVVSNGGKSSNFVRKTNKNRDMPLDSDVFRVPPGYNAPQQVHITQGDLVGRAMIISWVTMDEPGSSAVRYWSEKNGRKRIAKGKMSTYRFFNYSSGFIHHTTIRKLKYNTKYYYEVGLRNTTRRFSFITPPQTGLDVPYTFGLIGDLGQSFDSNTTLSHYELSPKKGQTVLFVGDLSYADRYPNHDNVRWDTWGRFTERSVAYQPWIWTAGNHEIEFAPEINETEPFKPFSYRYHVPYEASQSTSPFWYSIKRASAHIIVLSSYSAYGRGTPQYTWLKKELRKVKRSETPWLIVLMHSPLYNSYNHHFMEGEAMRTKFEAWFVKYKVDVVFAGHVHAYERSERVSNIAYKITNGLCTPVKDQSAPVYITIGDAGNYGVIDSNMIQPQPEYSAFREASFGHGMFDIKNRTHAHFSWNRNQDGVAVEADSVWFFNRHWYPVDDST
Description: Competitive inhibition of red kidney bean PAP using para-nitrophenol as substrate at pH 4.9 preincubated for 10 mins by UV-visible spectrophotometry.

Assay [2] can be described thus: Competitive inhibition of pig PAP using para-nitrophenol as substrate at pH 4.9 preincubated for 10 mins by UV-visible spectrophotometry. Further details: species or system Sus scrofa.
Assay [3] deals with T1, Fe(3+)-Zn(2+) purple acid phosphatase. Description: Uncompetitive inhibition of red kidney bean PAP using para-nitrophenol as substrate at pH 4.9 preincubated for 10 mins by UV-visible spectrophotometry.
Assay [4] is described as follows: Uncompetitive inhibition of pig PAP using para-nitrophenol as substrate at pH 4.9 preincubated for 10 mins by UV-visible spectrophotometry. Set-up: species or system Sus scrofa.

In the case of `CCCCCCCCCCCCCCCC(=O)NC(c1cccc2ccccc12)P(=O)(O)O` (racemic), the pKi – broadly, the negative decadic logarithm of the Ki, by convention in mol/L – is 4.51 in assay [1] and 4.89 in assay [2].
For the compound `CCCCCCC(=O)NC(c1cccc2ccccc12)P(=O)(O)O` (racemic), the negative logarithm of the Ki (pKi) was 3.65 in assay [1], 3.35 in assay [3], 3.94 in assay [2] and 3.46 in assay [4].
As to `CCCCCCCCCCCCCC(=O)NC(c1cccc2ccccc12)P(=O)(O)O` (racemic), the pKi is 4.96 in assay [1] and 5.10 in assay [2].
`CCCC(=O)NC(c1cccc2ccccc12)P(=O)(O)O` (racemic): the pKi in assay [1] is 3.62; in assay [3], 3.18; in assay [2], 3.44; in assay [4], 2.84.
For the compound `CCCCCCCC(=O)NC(c1cccc2ccccc12)P(=O)(O)O` (racemic), the pKi in assay [1] was 3.71; in assay [3], 3.35; in assay [2], 4.36.
Regarding `CCCCCCCCCC(=O)NC(c1cccc2ccccc12)P(=O)(O)O` (racemic), the pKi in assay [1] was 4.24; in assay [3], 3.99; in assay [2], 5.00.
On to `CCCCCCCCCCCC(=O)NC(c1cccc2ccccc12)P(=O)(O)O` (racemic), for which the negative-log Ki (pKi) in assay [1] was 5.30; in assay [2], 4.68.
